# From ChEMBL document CHEMBL1862790, “Optimisation of fenarimol series for the treatment of Chagas disease”
# Assays:
# [1] = DNDI: Cytotoxicity against L-6 rat myoblasts from skeletal muscle cells; conditions: L6 rat skeletal muscle myoblast cells, IC50
# [2] = tested on: Trypanosoma cruzi; experiment: microbe, parasite or virus in culture; assay type: functional, Tulahuen LacZ, Clone C4; conditions: Trypanosoma cruzi, Tulahuen LacZ, Clone C4
# [3] = tested on: Trypanosoma cruzi; experiment: microbe, parasite or virus in culture; assay type: functional, organism-based, Tulahuen LacZ, Clone C4; conditions: Trypanosoma cruzi, Tulahuen LacZ, Clone C4
SMILES,IC50 [1] [nM],IC90 [2] [nM],IC50 [3] [nM]
Cc1cc(C(=O)NC2CCN(C(c3ccc(C#N)cc3)c3cccnc3)CC2)no1 (centres undefined),> 100000,103,50
Cc1cc(C(=O)N2CCC(NC(c3ccc(C(F)(F)F)cc3)c3cccnc3)CC2)n(C)n1 (centres undefined),> 100000,773,264
N#Cc1ccc(C(c2cccnc2)N2CCC(NC(=O)c3cscn3)CC2)cc1 (centres undefined),> 100000,298,174
Cc1ncsc1C(=O)NC1CCN(C(c2ccc(C#N)cc2)c2cccnc2)CC1 (centres undefined),> 100000,202,71
O=C(C1CCC1)N1CCN(C(c2cncnc2)c2ccc(Cl)cc2F)CC1 (centres undefined),> 100000,868,412
O=C(NC1CC1)N1CCN(C(c2cncnc2)c2ccc(C(F)(F)F)cc2F)CC1 (centres undefined),> 100000,792,490
Fc1cc(Cl)ccc1C(NC1CCN(c2ccccc2F)CC1)c1cccnc1 (centres undefined),53200,10,4.5
N#Cc1ccc(C(c2cccnc2)N2CCC(NC(=O)c3ccc(F)cc3F)CC2)cc1 (centres undefined),> 100000,40,10
Cc1nc(C(=O)NC2CCN(C(c3ccc(C#N)cc3)c3cccnc3)CC2)cs1 (centres undefined),> 100000,156,65
Cc1cc(C(=O)NC2CCN(C(c3ccc(C#N)cc3)c3cccnc3)CC2)on1 (centres undefined),> 100000,688,196
Cc1ncoc1C(=O)NC1CCN(C(c2ccc(C#N)cc2)c2cccnc2)CC1 (centres undefined),> 100000,320,183
Cc1ncsc1C(=O)N1CCN(C(c2cccnc2)c2ccc(C(F)(F)F)cc2F)CC1 (centres undefined),96900,131,58.5
N#Cc1ccc(C(c2cccnc2)N2CCC(NC(=O)c3cccc(C(F)(F)F)c3)CC2)cc1 (centres undefined),> 100000,75.5,23
N#Cc1ccc(C(c2cccnc2)N2CCC(NC(=O)c3c(F)cccc3C(F)(F)F)CC2)cc1 (centres undefined),> 100000,10.4,4.48
Cc1nc(C(=O)NC2CCN(C(c3ccc(C#N)cc3)c3cccnc3)CC2)co1 (centres undefined),> 100000,272,114
Cc1nc(C(=O)N2CCC(NC(c3ccc(C(F)(F)F)cc3)c3cccnc3)CC2)co1 (centres undefined),> 100000,968,590
Cc1nnc(N2CCC(NC(c3ccc(C(F)(F)F)cc3)c3cccnc3)CC2)s1 (centres undefined),> 100000,168,69.5
Cc1noc(N2CCN(C(c3ccc(C#N)cc3)c3cccnc3)CC2)n1 (centres undefined),> 100000,127,64
CS(=O)(=O)N1CCN(C(c2cncnc2)c2ccc(C(F)(F)F)cc2F)CC1 (centres undefined),> 100000,72.5,24.5
Cc1nc(N2CCC(NC(c3cccnc3)c3ccc(Cl)cc3F)CC2)no1 (centres undefined),> 100000,140,64
Cc1nc(C)c(C(=O)NC2CCN(C(c3ccc(C#N)cc3)c3cccnc3)CC2)s1 (centres undefined),> 100000,118,59
N#Cc1ccc(C(c2cccnc2)N2CCC(NC(=O)c3nccs3)CC2)cc1 (centres undefined),> 100000,358,138
CC(C)(C)OC(=O)N1CC(CNC(c2ccc(C(F)(F)F)cc2)c2cccnc2)C1 (centres undefined),> 100000,332,122
Cc1cc(C(=O)NC2CCN(C(c3ccc(C#N)cc3)c3cccnc3)CC2)[nH]n1 (centres undefined),> 100000,670,236
Cc1oncc1C(=O)N1CCC(NC(c2ccc(C(F)(F)F)cc2)c2cccnc2)CC1 (centres undefined),> 100000,470,69.5
Cc1noc(N2CCN(C(c3cncnc3)c3ccc(C(F)(F)F)cc3F)CC2)n1 (centres undefined),> 100000,282,126
O=C(C1CC1)N1CCN(C(c2ccc(C(F)(F)F)cc2)c2cncnc2)CC1 (centres undefined),> 100000,652,332

SMILES,IC50 [1] [nM],IC90 [2] [nM],IC50 [3] [nM]
N#Cc1ccc(C(c2cccnc2)N2CCN(C(=O)NC3CC3)CC2)cc1 (centres undefined),> 100000,> 1000,> 1000
Nc1nc(N2CCN(C(c3cccnc3)c3ccc(C(F)(F)F)cc3F)CC2)no1 (centres undefined),57800,92,36.5
N#Cc1ccc(C(c2cccnc2)N2CCC(NC(=O)c3cc(F)ccc3F)CC2)cc1 (centres undefined),> 100000,49,15.5
Cc1ncsc1C(=O)N1CCN(C(c2ccc(C#N)cc2)c2cccnc2)CC1 (centres undefined),> 100000,> 1000,513
FC(F)(F)c1ccc(C(NC2CCN(c3cncs3)CC2)c2cccnc2)cc1 (centres undefined),59900,118,25
N#Cc1ccc(C(c2cccnc2)N2CCC(NC(=O)c3ccno3)CC2)cc1 (centres undefined),> 100000,671,220
CC(C)(C)OC(=O)N1CCC(NC(c2ccc(C(F)(F)F)cc2)c2cncs2)CC1 (centres undefined),61300,19.5,7
Cc1cc(C(=O)N2CCC(NC(c3ccc(C(F)(F)F)cc3)c3cccnc3)CC2)on1 (centres undefined),> 100000,779,363
CS(=O)(=O)N1CCN(C(c2ccc(C(F)(F)F)cc2)c2cncnc2)CC1 (centres undefined),> 100000,> 1000,768
Cc1noc(N2CCN(C(c3ccc(C(F)(F)F)cc3)c3cncnc3)CC2)n1 (centres undefined),> 100000,378,192
Cc1nocc1C(=O)N1CCC(NC(c2ccc(C(F)(F)F)cc2)c2cccnc2)CC1 (centres undefined),> 100000,584,164
N#Cc1ccc(C(c2cccnc2)N2CCC(NC(=O)c3cccc(F)c3F)CC2)cc1 (centres undefined),> 100000,55.5,17
O=C(c1ccno1)N1CCC(NC(c2ccc(C(F)(F)F)cc2)c2cccnc2)CC1 (centres undefined),> 100000,270,90
O=C(C1CC1)N1CCN(C(c2cncnc2)c2ccc(C(F)(F)F)cc2F)CC1 (centres undefined),> 100000,332,178
N#Cc1ccc(C(c2cccnc2)N2CCC(NC(=O)c3ccc(C(F)(F)F)cc3)CC2)cc1 (centres undefined),65700,76.5,20.5
CC(C)(C)OC(=O)N1CCN(C(c2cccnc2)c2ccc(C#N)cc2F)CC1 (centres undefined),> 100000,940,532
O=C(c1nccs1)N1CCC(NC(c2ccc(C(F)(F)F)cc2)c2cccnc2)CC1 (centres undefined),> 100000,455,57
FC(F)(F)c1ccc(C(c2cncnc2)N2CCN(c3nccs3)CC2)cc1 (centres undefined),68200,266,109
Cc1nc(C(=O)N2CCC(NC(c3ccc(C(F)(F)F)cc3)c3cccnc3)CC2)cs1 (centres undefined),> 100000,808,326
CC(C)(C)C(=O)N1CCN(C(c2ccc(C#N)cc2)c2cccnc2)CC1 (centres undefined),> 100000,696,254
Cc1nocc1C(=O)NC1CCN(C(c2ccc(C#N)cc2)c2cccnc2)CC1 (centres undefined),> 100000,101,55
N#Cc1ccc(C(c2cccnc2)N2CCN(c3nccs3)CC2)cc1 (centres undefined),> 100000,159,49.5
N#Cc1ccc(C(c2cccnc2)N2CCC(NC(=O)c3ccc(C(F)(F)F)cc3F)CC2)cc1 (centres undefined),76800,696,345
CC(C)OCCCNC(=O)c1cccc(C(O)(c2ccc(Cl)cc2)c2cccnc2)c1 (centres undefined),74800,232,97.5
Cc1nc(C)c(C(=O)N2CCC(NC(c3ccc(C(F)(F)F)cc3)c3cccnc3)CC2)s1 (centres undefined),> 100000,658,216
Cc1noc(C)c1C(=O)NC1CCN(C(c2ccc(C#N)cc2)c2cccnc2)CC1 (centres undefined),> 100000,104,51.5
